From patent publication US11970466B1, “4-((5-(3-fluorophenyl)-4-phenyl-4H-1,2,4-triazol-3-ylthio)methyl)benzoic acid as an antimicrobial compound” (KING FAISAL UNIVERSITY, priority 2023, dated 2024)

Experiments:
Format in all cases: cell-based
[1] = test system: Chrysosporium keratinophilum; assay: Agar plate disc-diffusion, antifungal inhibition zone; conditions: Sabouraud's dextrose agar, 72 hours
Description: (§1) The agar plate disc-diffusion method was applied. Sterilized filter papers (6 mm in diameter) were wetted with 10 μL of a solution of 4-((5-(3-fluorophenyl)-4-phenyl-4H-1,2,4-triazol-3-ylthio)methyl)benzoic acid (III) to be tested, containing 10 mg/mL in DMSO, and the discs were allowed to air dry. The discs were then placed onto the surface of agar plates (nutrient agar for bacteria and Sabouraud's dextrose agar for fungi) seeded with the test organism. Each plate contained 15 mL of the agar medium, previously seeded with 0.2 mL of the broth culture of each organism pregrown for 18 hours. The plates were incubated at 37° C. for 48 hours, and 72 hours for fungi. The inhibition zones were measured in mm. Discs impregnated with DMSO were used as a control, and its inhibition zone was subtracted from the tested compound actual inhibition zone.

Escherichia coli = assay: Agar plate disc-diffusion, antibacterial inhibition zone; conditions: Escherichia coli (Gram negative), nutrient agar, 37° C., 48 hours
Description: as §1

Aspergillus flavus = assay: Agar plate disc-diffusion, antifungal inhibition zone; conditions: Sabouraud's dextrose agar, 72 hours
Description: as §1, with “Sterilized filter papers (6 mm in diameter) were wetted with 10 μL of a solution of 4-((5-(3-fluorophenyl)-4-phenyl-4H-1,2,4-triazol-3-ylthio)methyl)benzoic acid (III) to be tested, containing 10 mg/mL in DMSO, and the discs were allowed to air dry.” left out

Bacillus Cereus = assay: Agar plate disc-diffusion, antibacterial inhibition zone; conditions: Bacillus Cereus (Gram positive), nutrient agar, 37° C., 48 hours
Description: as §1, with “Sterilized filter papers (6 mm in diameter) were wetted with 10 μL of a solution of 4-((5-(3-fluorophenyl)-4-phenyl-4H-1,2,4-triazol-3-ylthio)methyl)benzoic acid (III) to be tested, containing 10 mg/mL in DMSO, and the discs were allowed to air dry.” left out

Pseudomonas aeruginosa = assay: as above; conditions: Pseudomonas aeruginosa (Gram negative), nutrient agar, 37° C., 48 hours
Description: as §1, with “Sterilized filter papers (6 mm in diameter) were wetted with 10 μL of a solution of 4-((5-(3-fluorophenyl)-4-phenyl-4H-1,2,4-triazol-3-ylthio)methyl)benzoic acid (III) to be tested, containing 10 mg/mL in DMSO, and the discs were allowed to air dry.” left out

Staphylococcus aureus = assay: as above; conditions: Staphylococcus aureus (Gram positive), nutrient agar, 37° C., 48 hours
Description: as §1, with “Sterilized filter papers (6 mm in diameter) were wetted with 10 μL of a solution of 4-((5-(3-fluorophenyl)-4-phenyl-4H-1,2,4-triazol-3-ylthio)methyl)benzoic acid (III) to be tested, containing 10 mg/mL in DMSO, and the discs were allowed to air dry.” left out

[2] = A = concentration of comp. = 10,000 μL
[3] = B = concentration of comp. = 30,000 μL
[4] = C = concentration of comp. = 50,000 μL

Structure (SMILES): O=C(O)c1ccc(CSc2nnc(-c3cccc(F)c3)n2-c2ccccc2)cc1 [III, 4-((5-(3-fluorophenyl)-4-phenyl-4H-1,2,4-triazol-3-ylthio)methyl)benzoic acid]
- inhibition zone [1, 2]: 23 mm
- inhibition zone [1, 3]: 27 mm
- inhibition zone [1, 4]: 41 mm
- inhibition zone (Escherichia coli; [2]): 28 mm
- inhibition zone (Escherichia coli; [3]): 36 mm
- inhibition zone (Escherichia coli; [4]): 50 mm
- inhibition zone (Aspergillus flavus; [2]): 24 mm
- inhibition zone (Aspergillus flavus; [3]): 26 mm
- inhibition zone (Aspergillus flavus; [4]): 35 mm
- inhibition zone (Bacillus Cereus; [2]): 26 mm
- inhibition zone (Bacillus Cereus; [3]): 28 mm
- inhibition zone (Bacillus Cereus; [4]): 40 mm
- inhibition zone (Pseudomonas aeruginosa; [2]): 22 mm
- inhibition zone (Pseudomonas aeruginosa; [3]): 26 mm
- inhibition zone (Pseudomonas aeruginosa; [4]): 37 mm
- inhibition zone (Staphylococcus aureus; [2]): 19 mm
- inhibition zone (Staphylococcus aureus; [3]): 25 mm
- inhibition zone (Staphylococcus aureus; [4]): 35 mm

Structure (SMILES): O=C(O)c1cn(C2CC2)c2cc(N3CCNCC3)c(F)cc2c1=O [Cip., ciprofloxacin]
- inhibition zone [1, 2]: 29 mm
- inhibition zone [1, 3]: 30 mm
- inhibition zone [1, 4]: 53 mm
- inhibition zone (Escherichia coli; [2]): 30 mm
- inhibition zone (Escherichia coli; [3]): 39 mm
- inhibition zone (Escherichia coli; [4]): 60 mm
- inhibition zone (Aspergillus flavus; [2]): 29 mm
- inhibition zone (Aspergillus flavus; [3]): 30 mm
- inhibition zone (Aspergillus flavus; [4]): 42 mm
- inhibition zone (Bacillus Cereus; [2]): 29 mm
- inhibition zone (Bacillus Cereus; [3]): 30 mm
- inhibition zone (Bacillus Cereus; [4]): 42 mm
- inhibition zone (Pseudomonas aeruginosa; [2]): 29 mm
- inhibition zone (Pseudomonas aeruginosa; [3]): 30 mm
- inhibition zone (Pseudomonas aeruginosa; [4]): 53 mm
- inhibition zone (Staphylococcus aureus; [2]): 43 mm
- inhibition zone (Staphylococcus aureus; [3]): 44 mm
- inhibition zone (Staphylococcus aureus; [4]): 53 mm
